# Reference: US9999222B2, “Herbicidal combination comprising azines” (BASF SE, priority 2014, dated 2018)
# “And” between values parts separate entries of the source, which are not always exact repeats. Identical values can stand only once. Like-named read-outs stand apart in the source and are kept apart here.
# Tests used:
# Experiment in all cases: Greenhouse test, pre-emergence treatment
# LOLMU = type: in vivo, Lolium multiflorum; conditions: pre-emergence, 8 g ai/ha
# How it was run: (§1)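 Damage was rated on a 0-100 scale, with 100 meaning no emergence or full destruction of aerial parts. Observed combination effects were set against the additive Colby expectation E=X+Y−(X·Y/100). Spray liquor was water-based, from 10% emulsion concentrates, applied pre-emergence right after sowing in loamy sand (about 3.0% humus). Plants were held at 10-25 °C or 20-35 °C for 2 to 4 weeks.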
# EPHHL = type: in vivo, Euphorbia heterophylla; conditions: pre-emergence
# How it was run: as §1
# GERPU = type: in vivo, Geranium pusillum; conditions: pre-emergence
# How it was run: as §1
# SETVI = type: in vivo, Setaria viridis
# From the text: The culture containers used were plastic flowerpots containing loamy sand with approximately 3.0% of humus as the substrate. The seeds of the test plants were sown separately for each species.
# For the pre-emergence treatment, the active ingredients, which had been suspended or emulsified in water, were applied directly after sowing by means of finely distributing nozzles. The containers were irrigated gently to promote germination and growth and subsequently covered with transparent plastic hoods until the plants had rooted. This cover caused uniform germination of the test plants, unless this had been impaired by the active ingredients.
# Depending on the species, the plants were kept at 10-25° C. or 20-35° C., respectively.
# The test period extended over 2 to 4 weeks. During this time, the plants were tended, and their response to the individual treatments was evaluated.
# Evaluation was carried out using a scale from 0 to 100. 100 means no emergence of the plants, or complete destruction of at least the aerial moieties, and 0 means no damage, or normal course of growth. A moderate herbicidal activity is given at values of at least 60, a good herbicidal activity is given at values of at least 70, and a very good herbicidal activity is given at values of at least 85.
# The respective stated components a and b, and if appropriate, c were formulated as a 10% by weight strength emulsion concentrate and, with addition of the amount of solvent system, introduced into the spray liquor used for applying the active compound.
# In the examples, the solvent used was water.
# In the examples below, using the method of S. R. Colby (1967) “Calculating synergistic and antagonistic responses of herbicide combinations”, Weeds 15, p. 22ff., the value E, which is expected if the activity of the individual active compounds is only additive, was calculated. E=X+Y−(X·Y/100) where • X=percent activity using active compound a at an application rate A; • Y=percent activity using active compound b at an application rate B; • E=expected activity (in %) by a+b at application rates A+B.
# If the value found experimentally is higher than the value E calculated according to Colby, a synergistic effect is present.
# PHACA = type: in vivo, Phalaris canariensis; conditions: Phalaris canariensis, pre-emergence, 480 h, pre-emergence, read-out: observed % activity 20 DAT
# How it was run: as §1
# BRADC = type: in vivo, Brachiaria decumbens; conditions: pre-emergence, pre-emergence
# How it was run: as §1
# AVEFA = type: in vivo, Avena fatua; conditions: Avena fatua, pre-emergence, 480 h, pre-emergence, read-out: observed % activity 20 DAT
# How it was run: as §1
# POLCO = type: in vivo, Polygonum convolvulus; conditions: pre-emergence
# How it was run: as §1
# ALOMY = type: in vivo, Alopecurus myosuroides; conditions: pre-emergence, pre-emergence
# How it was run: as §1
# [1] = Euphorbia heterophylla, 480 h, 8 g ai/ha, read-out: observed % activity 20 DAT
# [2] = Fallopia convolvulus, 480 h, 4 g ai/ha, read-out: observed % activity 20 DAT
# [3] = Alopecurus myosuroides, 480 h, 2 g ai/ha, read-out: observed % activity 20 DAT
smiles,measurement,setting,value
"Nc1nc(Nc2c(F)c(F)cc(F)c2F)nc(C2(F)CCCC2)n1 [compound 9, 6-(1-fluorocyclopentyl)-N4-(2,3,5,6-tetrafluorophenyl)-1,3,5-triazine-2,4-diamine]",observed % activity 20 DAT,LOLMU,80%
same,observed % activity 20 DAT,"EPHHL; EPHHL, individual, use rate 8 g ai/ha",30%
same,inhibition at 8 g/ha,"EPHHL; Euphorbia heterophylla, 480 h, EPHHL, individual, use rate 8 g ai/ha, read-out: observed % activity 20 DAT",25%
same,inhibition at 16 g/ha,"EPHHL; Euphorbia heterophylla, 480 h, EPHHL, individual, use rate 16 g ai/ha, read-out: observed % activity 20 DAT",15%
same,pest or weed control at 4 g/ha,"EPHHL; Euphorbia heterophylla, 480 h, 4 g ai/ha, read-out: observed % activity 20 DAT",25%
same,inhibition at 8 g/ha,EPHHL; [1],10%
same,pest or weed control at 8 g/ha,EPHHL; [1],10%
same,inhibition at 16 g/ha,"EPHHL; Euphorbia heterophylla, 480 h, 16 g ai/ha, read-out: observed % activity 20 DAT",20%
same,observed % activity 20 DAT,"GERPU; GERPU, individual, use rate 16 g ai/ha",30% and 60%
same,inhibition at 8 g/ha,"GERPU; Geranium pusillum, 480 h, GERPU, individual, use rate 8 g ai/ha, read-out: observed % activity 20 DAT",40%
same,pest or weed control at 4 g/ha,"GERPU; Geranium pusillum, 480 h, 4 g ai/ha, read-out: observed % activity 20 DAT",20%
same,inhibition at 8 g/ha,"GERPU; Geranium pusillum, 480 h, 8 g ai/ha, read-out: observed % activity 20 DAT",40%
same,observed % activity 20 DAT,GERPU; 16 g ai/ha,60% and 30%
same,observed % activity 20 DAT,SETVI; 2 g ai/ha,90%
same,observed % activity 20 DAT,SETVI; 4 g ai/ha,90%
same,inhibition at 2 g/ha,"SETVI; Setaria viridis, 480 h, 2 g ai/ha, read-out: observed % activity 20 DAT",70%
same,inhibition at 4 g/ha,"SETVI; Setaria viridis, 480 h, 4 g ai/ha, read-out: observed % activity 20 DAT",80%
same,inhibition at 2 g/ha,PHACA; 2 g ai/ha,0%
same,pest or weed control at 2 g/ha,PHACA; 2 g ai/ha,0%
same,inhibition at 8 g/ha,PHACA; 8 g ai/ha,50%
same,pest or weed control at 8 g/ha,PHACA; 8 g ai/ha,70%
same,inhibition at 2 g/ha,"BRADC; Urochloa decumbens, 480 h, 2 g ai/ha, read-out: observed % activity 20 DAT",20%
same,inhibition at 4 g/ha,"BRADC; Urochloa decumbens, 480 h, 4 g ai/ha, read-out: observed % activity 20 DAT",55%
same,inhibition at 8 g/ha,"BRADC; Urochloa decumbens, 480 h, 8 g ai/ha, read-out: observed % activity 20 DAT",35%
same,observed % activity 20 DAT,BRADC; 4 g ai/ha,40%
same,inhibition at 2 g/ha,AVEFA; 2 g ai/ha,0%
same,inhibition at 8 g/ha,AVEFA; 8 g ai/ha,0%
same,pest or weed control at 4 g/ha,POLCO; [2],20%
same,pest or weed control at 8 g/ha,"POLCO; Fallopia convolvulus, 480 h, 8 g ai/ha, read-out: observed % activity 20 DAT",80%
same,inhibition at 8 g/ha,"POLCO; Fallopia convolvulus, 480 h, POLCO, individual, use rate 8 g ai/ha, read-out: observed % activity 20 DAT",50%
same,inhibition at 16 g/ha,"POLCO; Fallopia convolvulus, 480 h, POLCO, individual, use rate 16 g ai/ha, read-out: observed % activity 20 DAT",70%
same,inhibition at 4 g/ha,POLCO; [2],20%
same,inhibition at 16 g/ha,"POLCO; Fallopia convolvulus, 480 h, 16 g ai/ha, read-out: observed % activity 20 DAT",80%
same,observed % activity 20 DAT,POLCO; 8 g ai/ha,75%
same,inhibition at 2 g/ha,ALOMY; [3],75%
same,pest or weed control at 2 g/ha,ALOMY; [3],75%
same,pest or weed control at 8 g/ha,"ALOMY; Alopecurus myosuroides, 480 h, 8 g ai/ha, read-out: observed % activity 20 DAT",98%
same,observed % activity 20 DAT,ALOMY; 2 g ai/ha,70%
same,observed % activity 20 DAT,ALOMY; 4 g ai/ha,45%
